Experimental data as given in the supplement of paper PMC12076712.

What was measured:
Assay in all cases: pIC50, kinobeads binding competition
Details in all cases: cell material: Jurkat lysate
[1] = molecular target: T1, EPHA3 (UniProt P29320)
T1 sequence (whole entry): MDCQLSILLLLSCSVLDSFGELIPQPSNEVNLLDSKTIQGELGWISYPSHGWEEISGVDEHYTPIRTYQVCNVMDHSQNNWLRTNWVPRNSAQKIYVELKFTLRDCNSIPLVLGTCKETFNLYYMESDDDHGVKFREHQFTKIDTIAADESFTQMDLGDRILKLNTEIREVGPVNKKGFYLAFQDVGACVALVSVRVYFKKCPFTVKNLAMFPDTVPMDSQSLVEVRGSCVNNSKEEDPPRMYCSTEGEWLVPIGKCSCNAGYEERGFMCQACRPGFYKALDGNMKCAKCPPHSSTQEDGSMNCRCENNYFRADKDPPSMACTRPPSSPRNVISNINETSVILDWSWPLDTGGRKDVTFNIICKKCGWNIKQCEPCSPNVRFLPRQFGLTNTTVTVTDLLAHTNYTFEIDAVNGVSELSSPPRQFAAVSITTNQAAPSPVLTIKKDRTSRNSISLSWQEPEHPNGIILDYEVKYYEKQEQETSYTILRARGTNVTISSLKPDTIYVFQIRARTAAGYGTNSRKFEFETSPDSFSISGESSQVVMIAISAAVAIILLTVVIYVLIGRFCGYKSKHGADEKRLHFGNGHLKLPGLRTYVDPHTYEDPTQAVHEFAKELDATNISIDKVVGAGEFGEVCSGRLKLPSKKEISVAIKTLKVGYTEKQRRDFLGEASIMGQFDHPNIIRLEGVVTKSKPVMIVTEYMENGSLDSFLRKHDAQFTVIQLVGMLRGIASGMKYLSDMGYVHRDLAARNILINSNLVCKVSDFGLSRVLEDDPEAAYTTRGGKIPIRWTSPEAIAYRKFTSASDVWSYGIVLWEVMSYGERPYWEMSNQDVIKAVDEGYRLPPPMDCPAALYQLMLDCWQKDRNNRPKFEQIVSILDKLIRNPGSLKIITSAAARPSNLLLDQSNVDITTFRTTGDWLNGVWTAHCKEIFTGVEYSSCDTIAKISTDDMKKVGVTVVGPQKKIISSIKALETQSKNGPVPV

[2] = molecular target: MAPK11 (UniProt Q15759)
[3] = molecular target: T2, PKMYT1 (UniProt Q99640)
T2 sequence (whole entry): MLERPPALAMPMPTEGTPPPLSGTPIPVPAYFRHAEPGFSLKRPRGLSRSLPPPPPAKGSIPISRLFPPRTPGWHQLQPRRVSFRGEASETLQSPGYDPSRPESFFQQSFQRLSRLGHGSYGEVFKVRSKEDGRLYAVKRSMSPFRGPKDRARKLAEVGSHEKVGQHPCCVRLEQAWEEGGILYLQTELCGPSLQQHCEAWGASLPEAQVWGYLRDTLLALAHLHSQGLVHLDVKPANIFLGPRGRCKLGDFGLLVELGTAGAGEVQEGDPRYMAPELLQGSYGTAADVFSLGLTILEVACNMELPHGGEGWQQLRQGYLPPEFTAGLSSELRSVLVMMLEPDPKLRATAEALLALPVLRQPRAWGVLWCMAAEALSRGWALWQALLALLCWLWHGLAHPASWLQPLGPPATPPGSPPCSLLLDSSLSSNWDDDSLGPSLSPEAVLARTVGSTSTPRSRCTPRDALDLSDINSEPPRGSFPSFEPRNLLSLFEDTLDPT

[4] = molecular target: T3, TP53RK (UniProt Q96S44)
T3 sequence (whole entry): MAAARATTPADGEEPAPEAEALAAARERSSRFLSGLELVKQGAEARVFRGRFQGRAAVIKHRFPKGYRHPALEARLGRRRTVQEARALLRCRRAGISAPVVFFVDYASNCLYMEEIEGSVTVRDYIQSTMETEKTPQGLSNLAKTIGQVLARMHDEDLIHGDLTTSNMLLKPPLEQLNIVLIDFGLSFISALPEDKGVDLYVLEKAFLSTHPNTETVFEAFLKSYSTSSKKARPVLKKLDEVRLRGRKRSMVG

[5] = molecular target: T4, ULK1 (UniProt O75385)
T4 sequence (whole entry): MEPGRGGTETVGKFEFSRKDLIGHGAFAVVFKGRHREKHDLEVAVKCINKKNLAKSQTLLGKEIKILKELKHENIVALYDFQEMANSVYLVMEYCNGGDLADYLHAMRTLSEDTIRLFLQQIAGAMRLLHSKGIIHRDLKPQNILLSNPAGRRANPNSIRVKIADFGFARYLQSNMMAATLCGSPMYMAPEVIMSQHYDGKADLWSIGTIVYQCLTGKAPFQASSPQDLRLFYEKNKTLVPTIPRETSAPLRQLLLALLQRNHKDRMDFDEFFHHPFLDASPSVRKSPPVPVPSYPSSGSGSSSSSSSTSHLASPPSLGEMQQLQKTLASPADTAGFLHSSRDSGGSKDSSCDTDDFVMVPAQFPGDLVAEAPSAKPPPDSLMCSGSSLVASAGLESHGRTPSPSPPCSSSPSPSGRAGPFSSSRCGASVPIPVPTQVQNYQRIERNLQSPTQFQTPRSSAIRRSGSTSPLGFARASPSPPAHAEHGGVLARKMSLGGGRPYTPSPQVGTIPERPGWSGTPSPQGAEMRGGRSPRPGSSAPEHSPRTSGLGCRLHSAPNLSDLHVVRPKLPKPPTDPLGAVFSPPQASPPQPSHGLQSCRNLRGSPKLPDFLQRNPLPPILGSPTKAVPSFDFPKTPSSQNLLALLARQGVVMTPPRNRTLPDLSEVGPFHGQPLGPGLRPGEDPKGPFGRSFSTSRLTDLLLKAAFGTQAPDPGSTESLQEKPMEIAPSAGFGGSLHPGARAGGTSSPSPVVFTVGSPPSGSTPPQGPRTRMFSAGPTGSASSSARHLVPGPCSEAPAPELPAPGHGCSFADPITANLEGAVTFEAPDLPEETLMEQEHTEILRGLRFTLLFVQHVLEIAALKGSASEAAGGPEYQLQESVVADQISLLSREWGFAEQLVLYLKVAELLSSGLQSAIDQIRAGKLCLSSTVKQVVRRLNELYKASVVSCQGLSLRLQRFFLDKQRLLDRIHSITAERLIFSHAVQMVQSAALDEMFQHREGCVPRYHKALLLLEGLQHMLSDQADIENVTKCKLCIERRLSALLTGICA

[6] = molecular target: UniProt O94804
[7] = molecular target: UniProt P19784
[8] = molecular target: UniProt Q13557
[9] = molecular target: UniProt Q9Y2K2

- pIC50 [1]: < 4.52
- pIC50 [2]: < 4.52
- pIC50 [3]: < 4.52
- pIC50 [4]: < 4.52
- pIC50 [5]: < 4.52
- pIC50 [6]: < 4.52
- pIC50 [7]: < 4.52
- pIC50 [8]: < 4.52
- pIC50 [9]: < 4.52
Structure (SMILES): CCc1cnn2c(NCc3ccc[n+]([O-])c3)cc(N3CCCC[C@H]3CCO)nc12 [dinaciclib]
